The values below come from patent US20250161288A1, “MULTIMERIZER PHARMACEUTICAL COMPOSITIONS” (PONCE THERAPEUTICS, INC., priority 2022, published 2025).

The conditions of data set [1]: class IV characterisation, aqueous solubility; cited from earlier work.
The format of data set [2] is physicochemical. The text has this: As such, rimiducid is categorized as a biopharmaceutical classification system (BCS) class IV drug. Although there are exceptions, BCS class IV compounds generally are viewed as poor candidates for oral delivery (Markovic et al., Pharmaceutics 2020, 12(12), 1175. doi.org/10.3390/pharmaceutics12121175). For a compound to be absorbed, it must first be in solution. […] Once solubilized, rimiducid must cross the plasma membranes of the intestinal tract to be absorbed. […] Because of the molecular weight of 1411.6 Da, passive absorption of rimiducid through the intestinal aqueous porin channels is unlikely (Dahlgren et al., Pharmaceutics. 2019; 11(8):411. Published 2019 Aug. 13. doi:10.3390/pharmaceutics11080411).

For data set [3] the following is noted: Drug Bank Online; cited from earlier work.

On to `CC[C@H](C(=O)N1CCCC[C@H]1C(=O)O[C@H](CCc1ccc(OC)c(OC)c1)c1cccc(OCC(=O)NCCNC(=O)COc2cccc([C@@H](CCc3ccc(OC)c(OC)c3)OC(=O)[C@@H]3CCCCN3C(=O)[C@@H](CC)c3cc(OC)c(OC)c(OC)c3)c2)c1)c1cc(OC)c(OC)c(OC)c1` [Rimiducid, rimiducid], for which, in data set [1], the “volume required to dissolve an effective dose” value is recorded as “greater than 250 milliliters”. The “theoretical maximal solubility of rimiducid within the upper GI tract” value in data set [2] is on record as “less than 250 μg”. Besides, the water solubility entry in data set [3] is given as “less than 0.5 μg/mL”.
